Where two headings read alike, the source gives them in different places. One block for each molecule: values may come before it.
Tests used:
rats = test: positive emotional learning (PEL) test, 50-kHz ultrasonic vocalizations; format: in vivo; conditions: rat, PO, one hour after administration
Experimental: Experiments were conducted as described in Burgdorf et al., “The effect of selective breeding for differential rates of 50-kHz ultrasonic vocalizations on emotional behavior in rats,” Devel. Psychobiol., 51:34-46 (2009). Rat 50-kHz ultrasonic vocalization (hedonic USVs) is a validated model for the study of positive affective state and is best elicited by rough-and-tumble play.
The PEL assay measures the acquisition of positive (hedonic) 50-kHz ultrasonic vocalizations (USVs) to a social stimulus, heterospecific rough and tumble play stimulation. Heterospecific rough-and-tumble play stimulation was administered by the experimenter's right hand. One hour after administration of test compound or vehicle negative control (0.5% sodium carboxymethyl cellulose in 0.9% sterile saline vehicle), animals received 3 min of heterospecific rough-and-tumble play that consisted of alternating 15 sec blocks of heterospecific play and 15 sec of no-stimulation. High frequency ultrasonic vocalizations (USVs) were recorded and analyzed by sonogram with Avasoft SASlab Pro (Germany) as previously described by Burgdorf et al., “Positive emotional learning is regulated in the medial prefrontal cortex by GluN2B-containing NMDA receptors,” Neuroscience, 192:515-523 (2011). Frequency modulated 50-kHz USVs that occurred during each of the no-stimulation periods were quantified to measure PEL. Animals were not habituated to play stimulation before testing. Positive emotional learning was measured during the conditioned stimulus (CS) trials preceding the tickle unconditioned stimulus (UCS) trials. Animals received 15 second trials consisting of 6 CS and 6 UCS trials each (3 min total).
The table below summarizes the findings. As each experiment includes its own vehicle group, an example (typical) vehicle score is shown. Max effect (mean number of 50 kHz USVs per 15 seconds) is reported as ^: <6.0; *: 6.0-7.6; **: 7.7-10; ***:10.1-20

NMDAR2A = molecular target: T1, NMDAR2A (Homo sapiens, UniProt Q12879); test: [3H]MK-801 binding in NMDAR2A expressing HEK cell membranes; format: biochemical; design: key to B: log EC50: 0=−; ≥1×10^−9 M (e.g., −8)=+; <1×10^−9 M (e.g., −10)=++; conditions: 50 μM glutamate
T1 construct: expressed in transfected cells; host or cells: HEK cells (membrane extract)
T1 sequence (Q12879 23-1464, species assumed, other chains not shown): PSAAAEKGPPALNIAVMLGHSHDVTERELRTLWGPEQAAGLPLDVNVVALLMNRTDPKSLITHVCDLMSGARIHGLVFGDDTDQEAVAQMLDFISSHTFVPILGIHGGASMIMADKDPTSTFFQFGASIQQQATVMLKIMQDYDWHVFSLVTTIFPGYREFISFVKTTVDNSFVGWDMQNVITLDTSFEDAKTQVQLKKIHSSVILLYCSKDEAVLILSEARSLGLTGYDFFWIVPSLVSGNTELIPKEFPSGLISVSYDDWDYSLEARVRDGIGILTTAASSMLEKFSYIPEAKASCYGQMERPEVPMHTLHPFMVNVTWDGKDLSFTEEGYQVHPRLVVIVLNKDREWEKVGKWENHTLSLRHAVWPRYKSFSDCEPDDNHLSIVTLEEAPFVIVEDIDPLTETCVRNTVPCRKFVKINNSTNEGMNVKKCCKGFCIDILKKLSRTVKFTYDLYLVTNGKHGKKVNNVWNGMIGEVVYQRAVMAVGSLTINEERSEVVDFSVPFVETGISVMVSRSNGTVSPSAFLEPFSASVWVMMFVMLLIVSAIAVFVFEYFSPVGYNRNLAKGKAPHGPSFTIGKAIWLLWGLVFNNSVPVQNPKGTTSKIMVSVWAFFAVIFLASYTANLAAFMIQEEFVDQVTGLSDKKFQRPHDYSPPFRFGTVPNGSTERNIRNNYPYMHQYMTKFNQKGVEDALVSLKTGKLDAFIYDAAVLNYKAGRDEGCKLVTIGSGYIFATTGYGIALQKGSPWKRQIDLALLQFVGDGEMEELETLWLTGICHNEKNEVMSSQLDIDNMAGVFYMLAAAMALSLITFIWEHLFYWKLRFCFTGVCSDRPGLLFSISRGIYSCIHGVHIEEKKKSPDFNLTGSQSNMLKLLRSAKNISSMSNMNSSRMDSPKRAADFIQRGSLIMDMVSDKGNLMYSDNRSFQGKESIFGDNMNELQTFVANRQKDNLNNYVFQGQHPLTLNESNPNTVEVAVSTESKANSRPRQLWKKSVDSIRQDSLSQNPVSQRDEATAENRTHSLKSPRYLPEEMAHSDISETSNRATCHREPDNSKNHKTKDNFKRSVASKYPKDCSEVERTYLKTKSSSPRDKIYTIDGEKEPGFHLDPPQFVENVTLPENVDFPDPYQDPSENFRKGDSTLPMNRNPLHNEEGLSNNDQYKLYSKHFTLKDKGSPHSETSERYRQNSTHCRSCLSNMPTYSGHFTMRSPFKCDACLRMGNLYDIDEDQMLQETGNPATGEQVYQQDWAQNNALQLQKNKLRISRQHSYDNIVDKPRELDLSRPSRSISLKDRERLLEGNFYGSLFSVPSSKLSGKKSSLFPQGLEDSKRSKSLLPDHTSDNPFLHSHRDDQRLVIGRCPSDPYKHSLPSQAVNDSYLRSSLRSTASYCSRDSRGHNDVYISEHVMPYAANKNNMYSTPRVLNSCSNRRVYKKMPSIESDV
Experimental: (§1) Assays were conducted as described by Moskal et al., “GLYX-13: a monoclonal antibody-derived peptide that acts as an N-methyl-D-aspartate receptor modulator,” Neuropharmacology, 49, 1077-87, 2005. These studies were designed to determine if the test compounds act to facilitate NMDAR activation in NMDAR2A, NMDAR2B, NMDAR2C or NMDAR2D expressing HEK cell membranes as measured by increases in [^3H]MK-801 binding.
(§2) In the assay, 300 μg of NMDAR expressing HEK cell membrane extract protein was preincubated for 15 minutes at 25° C. in the presence of saturating concentrations of glutamate (50 μM) and varying concentrations of test compound (1×10^−15M−1×10^−7M), or 1 mM glycine. Following the addition of 0.3 μCi of [^3H]MK-801 (22.5 Ci/mmol), reactions were again incubated for 15 minutes at 25° C. (nonequilibrium conditions). Bound and free [^3H]MK-801 were separated via rapid filtration using a Brandel apparatus.
(§3) In analyzing the data, the DPM (disintegrations per minute) of [^3H]MK-801 remaining on the filter were measured for each concentration of test compound or for 1 mM glycine. The DPM values for each concentration of a ligand (N=2) were averaged. The baseline value was determined from the best fit curve of the DPM values modeled using the GraphPad program and the log(agonist) vs. response (three parameters) algorithm was then subtracted from all points in the dataset. The % maximal [^3H]MK-801 binding was then calculated relative to that of 1 mM glycine: all baseline subtracted DPM values were divided by the average value for 1 mM glycine. The EC50 and % maximal activity were then obtained from the best fit curve of the % maximal [^3H]MK-801 binding data modelled using the GraphPad program and the log(agonist) vs. response (three parameters) algorithm.
(§4) The tables below summarize the results for the wild type […] NMDAR2A, NMDAR2B, NMDAR2C, and NMDAR2D, and whether the compound is not an agonist (−), is an agonist (+), or is a strong agonist (++), where column A is based on the % maximal [^3H]MK-801 binding relative to 1 mM glycine (−=0; <100%=+; and >100%=++); and column B is based on log EC50 values (0=−; ≥1×10^−9 M (e.g., −8)=+; and <1×10^−9 M (e.g., −10)=++).

NMDAR2D [1] = molecular target: T2, NMDAR2D (Homo sapiens, UniProt O15399); test: [3H]MK-801 binding in NMDAR2D expressing HEK cell membranes; format: biochemical; design: key to B: log EC50: 0=−; ≥1×10^−9 M (e.g., −8)=+; <1×10^−9 M (e.g., −10)=++; conditions: for A: % maximal [3H]MK-801 binding relative to 1 mM glycine: second part of table (r25-r35), c3, taken as NMDAR2D
T2 construct: expressed in transfected cells; host or cells: HEK cells (membrane extract)
T2 sequence (O15399 28-1336, species assumed, other chains not shown): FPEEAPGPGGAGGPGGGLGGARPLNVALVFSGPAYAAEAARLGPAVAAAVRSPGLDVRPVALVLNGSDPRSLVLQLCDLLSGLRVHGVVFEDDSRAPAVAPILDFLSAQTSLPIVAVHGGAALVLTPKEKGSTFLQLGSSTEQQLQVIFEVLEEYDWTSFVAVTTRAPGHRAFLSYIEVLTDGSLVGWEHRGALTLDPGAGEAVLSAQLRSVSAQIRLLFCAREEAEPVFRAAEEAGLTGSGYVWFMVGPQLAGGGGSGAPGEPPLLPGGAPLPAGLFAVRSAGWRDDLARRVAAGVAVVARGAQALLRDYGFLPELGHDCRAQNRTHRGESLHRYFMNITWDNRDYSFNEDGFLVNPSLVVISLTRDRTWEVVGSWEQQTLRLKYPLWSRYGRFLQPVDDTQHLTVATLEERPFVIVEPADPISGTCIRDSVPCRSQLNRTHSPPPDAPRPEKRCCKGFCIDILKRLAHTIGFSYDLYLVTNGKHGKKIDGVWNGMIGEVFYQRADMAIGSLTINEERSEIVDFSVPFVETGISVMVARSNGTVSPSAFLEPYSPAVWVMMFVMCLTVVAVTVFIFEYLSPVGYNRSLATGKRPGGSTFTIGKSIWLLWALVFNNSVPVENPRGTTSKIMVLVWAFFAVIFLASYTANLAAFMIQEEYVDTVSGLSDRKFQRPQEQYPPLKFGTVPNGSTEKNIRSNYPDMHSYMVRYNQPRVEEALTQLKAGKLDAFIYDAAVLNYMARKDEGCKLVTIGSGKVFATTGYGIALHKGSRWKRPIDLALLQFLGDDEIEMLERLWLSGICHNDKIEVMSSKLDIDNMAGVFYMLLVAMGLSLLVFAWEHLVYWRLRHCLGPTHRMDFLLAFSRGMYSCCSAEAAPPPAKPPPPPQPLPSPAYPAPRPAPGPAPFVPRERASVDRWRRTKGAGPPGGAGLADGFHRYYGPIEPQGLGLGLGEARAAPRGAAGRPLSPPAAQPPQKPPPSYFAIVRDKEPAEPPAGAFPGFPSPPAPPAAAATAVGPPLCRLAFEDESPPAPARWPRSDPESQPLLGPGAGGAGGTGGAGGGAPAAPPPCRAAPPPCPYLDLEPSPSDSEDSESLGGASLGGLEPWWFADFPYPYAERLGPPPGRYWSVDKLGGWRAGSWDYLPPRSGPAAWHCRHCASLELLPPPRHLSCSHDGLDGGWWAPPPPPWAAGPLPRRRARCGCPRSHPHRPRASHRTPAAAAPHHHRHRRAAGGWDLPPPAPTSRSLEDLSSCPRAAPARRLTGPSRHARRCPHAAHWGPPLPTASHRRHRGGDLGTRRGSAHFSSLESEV
Experimental: as §1, §2, §3, §4

NMDAR2B = molecular target: T3, NMDAR2B (Homo sapiens, UniProt Q13224); test: [3H]MK-801 binding in NMDAR2B expressing HEK cell membranes; format: biochemical; conditions: 50 μM glutamate; for EC50: read-out: B: log EC50 (converted)
T3 construct: expressed in transfected cells; host or cells: HEK cells (membrane extract)
T3 sequence (Q13224 27-1484, species assumed, other chains not shown): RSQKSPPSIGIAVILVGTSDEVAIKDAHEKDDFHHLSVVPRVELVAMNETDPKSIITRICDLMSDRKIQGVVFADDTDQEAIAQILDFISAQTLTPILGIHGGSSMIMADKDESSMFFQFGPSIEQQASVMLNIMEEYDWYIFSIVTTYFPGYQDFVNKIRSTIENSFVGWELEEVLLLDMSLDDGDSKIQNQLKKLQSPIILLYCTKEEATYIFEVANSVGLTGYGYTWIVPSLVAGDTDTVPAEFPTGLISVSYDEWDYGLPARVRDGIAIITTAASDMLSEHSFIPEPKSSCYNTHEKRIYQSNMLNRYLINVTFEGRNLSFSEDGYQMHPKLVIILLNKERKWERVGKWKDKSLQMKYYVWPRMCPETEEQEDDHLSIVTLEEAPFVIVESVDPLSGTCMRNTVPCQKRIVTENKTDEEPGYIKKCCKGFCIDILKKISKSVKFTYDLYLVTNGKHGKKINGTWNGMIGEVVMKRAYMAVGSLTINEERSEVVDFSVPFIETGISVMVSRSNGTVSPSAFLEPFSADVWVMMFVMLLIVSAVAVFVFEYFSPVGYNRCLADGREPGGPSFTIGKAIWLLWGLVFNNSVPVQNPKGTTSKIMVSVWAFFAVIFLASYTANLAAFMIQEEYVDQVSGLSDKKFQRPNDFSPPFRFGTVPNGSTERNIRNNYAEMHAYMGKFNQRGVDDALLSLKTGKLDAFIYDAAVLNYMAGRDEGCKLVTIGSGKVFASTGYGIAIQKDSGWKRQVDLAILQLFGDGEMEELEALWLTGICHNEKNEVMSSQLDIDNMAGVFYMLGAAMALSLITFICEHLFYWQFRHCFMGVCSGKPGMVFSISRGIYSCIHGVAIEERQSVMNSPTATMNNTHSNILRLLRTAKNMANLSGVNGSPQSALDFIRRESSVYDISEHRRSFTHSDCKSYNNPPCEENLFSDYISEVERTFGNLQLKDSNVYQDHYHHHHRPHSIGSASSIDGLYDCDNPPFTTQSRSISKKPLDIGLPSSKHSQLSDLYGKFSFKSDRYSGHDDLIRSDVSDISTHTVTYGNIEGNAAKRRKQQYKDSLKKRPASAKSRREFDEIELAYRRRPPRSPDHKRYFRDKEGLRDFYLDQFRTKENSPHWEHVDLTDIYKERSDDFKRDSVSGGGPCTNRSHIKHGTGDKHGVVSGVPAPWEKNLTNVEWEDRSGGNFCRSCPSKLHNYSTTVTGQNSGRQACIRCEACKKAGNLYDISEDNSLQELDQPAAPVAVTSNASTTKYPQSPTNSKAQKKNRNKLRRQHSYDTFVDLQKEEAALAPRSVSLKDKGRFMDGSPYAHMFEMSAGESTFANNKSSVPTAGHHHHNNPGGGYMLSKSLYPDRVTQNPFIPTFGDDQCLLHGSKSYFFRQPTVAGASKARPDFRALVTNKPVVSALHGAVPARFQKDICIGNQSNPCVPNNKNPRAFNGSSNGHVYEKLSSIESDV
Experimental: as §1, §2, §3, §4

IV pharmacokinetics = format: in vivo; conditions: Sprague Dawley rats; for C0: normal saline (first four compounds: 5% NMP, 5% Solutol HS, 90% normal saline)
Experimental: Sprague Dawley rats were dosed intravenously using a normal saline formulation containing 2 mg/kg of the compounds identified in the below table (except for the first four compounds that were delivered in 5% NMP, 5% Solutol® HS and 90% normal saline formulation). The table below summarizes the results of the IV pharmacokinetics.

NMDAR2C = molecular target: T4, NMDAR2C (Homo sapiens, UniProt Q14957); test: [3H]MK-801 binding in NMDAR2C expressing HEK cell membranes; format: biochemical; conditions: second part of table (r25-r35); c2, taken as NMDAR2C; read-out: B: log EC50 (converted)
T4 construct: expressed in transfected cells; host or cells: HEK cells (membrane extract)
Experimental: as §1, §2
as §3, with “algorithm. […]” for “algorithm.”

[2] = oral pharmacokinetics (plasma, brain, CSF); format: in vivo; conditions: Sprague Dawley rats, per os 10 mg/kg; for Tmax: normal saline (first four compounds: 5% NMP, 5% Solutol HS, 90% normal saline)
Experimental: Plasma, brain, and CSF samples were analyzed at various time points over a 24 hour period.

NMDAR2D [3] = molecular target: T5, NMDAR2D (Homo sapiens, UniProt O15399+Q05586); test: [3H]MK-801 binding in NMDAR2D expressing HEK cell membranes; format: biochemical; design: key to B: log EC50: 0=−; ≥1×10^−9 M (e.g., −8)=+; <1×10^−9 M (e.g., −10)=++; conditions: second part of table (r25-r35); c4, taken as NMDAR2D; read-out: B: log EC50 (converted)
T5 construct: expressed in transfected cells; host or cells: HEK cells (membrane extract)
T5 sequence (O15399 28-1336, species assumed, other chains not shown): as the sequence (O15399 28-1336, species assumed, other chains not shown) above
Experimental: as §1, §2, §3, §4

[4] = Sprague Dawley, rat, in vivo, iv, 2 mg/kg
[5] = Sprague Dawley, rat, plasma, po, 10 mg/kg

A: % maximal [3H]MK-801 binding relative to 1 mM glycine (NMDAR2A): + (<100%=+)
EC50 (NMDAR2A; read-out: B: log EC50 (converted)): ≥ 1 nM
A: % maximal [3H]MK-801 binding relative to 1 mM glycine (NMDAR2D [1]): − (−=0)
B: log EC50 (NMDAR2D [1]; second part of table, c4, taken as NMDAR2D): −
A: % maximal [3H]MK-801 binding relative to 1 mM glycine (NMDAR2B): + (<100%=+)
EC50 (NMDAR2B): < 1 nM
AUClast (IV pharmacokinetics; intravenous 2 mg/kg): 234.08 ng·h/mL
T1/2 (IV pharmacokinetics; intravenous 2 mg/kg): 11.4 min
Vss (IV pharmacokinetics; intravenous 2 mg/kg): 1.69 L/kg
C0 (IV pharmacokinetics; intravenous 2 mg/kg): 1247.08 ng/mL
EC50 (NMDAR2C): < 1 nM
% F [2]: 28%
AUClast [2]: 324.2 ng·h/mL
CSF Cmax [2]: 102.5 ng/mL
Brain Cmax [2]: 203.6 ng/mL
Tmax [2]: 15 min
Cmax ([2]; plasma): 592 ng/mL
Structure (SMILES): CC(C)(C)OC(=O)N1CCCC2(CCNC2=O)C1 (single isomer, unassigned) [RA-1, tert-butyl 1-oxo-2,7-diazaspiro[4.5]decane-7-carboxylate]
Max Effect (mean number of 50 kHz USVs per 15 seconds) (rats; dose 0.1 mg/kg): *** (***:10.1-20)

A: % maximal [3H]MK-801 binding relative to 1 mM glycine (NMDAR2A): − (−=0)
B: log EC50 (NMDAR2A): −
A: % maximal [3H]MK-801 binding relative to 1 mM glycine (NMDAR2D [1]): + (<100%=+)
EC50 (NMDAR2D [3]): < 1 nM
Emax (NMDAR2B; read-out: A: % maximal [3H]MK-801 binding relative to 1 mM glycine): < 100%
EC50 (NMDAR2B): < 1 nM
Vss (IV pharmacokinetics; intravenous 2 mg/kg): 4.12 L/kg
C0 (IV pharmacokinetics; intravenous 2 mg/kg): 589.9 ng/mL
AUC(0-t) (IV pharmacokinetics; [4]): 136 ng·h/mL
half-life (IV pharmacokinetics; [4]): 16.2 min
CSF Cmax [2]: 86.1 ng/mL
Brain Cmax [2]: 22 ng/mL
AUC(0-t) [2, 5]: 273 ng·h/mL
bioavailability [2, 5]: 40%
Cmax ([2]; Sprague Dawley, rat, plasma, po, 10 mg/kg, plasma, read-out: Cmax): 495 ng/mL
Tmax ([2]; rat, plasma, po, read-out: Tmax): 15 min
Structure (SMILES): CC(C)(C)OC(=O)N1CCCC2(CCNC2=O)C1 (single isomer, unassigned) [RE-1, tert-butyl 1-oxo-2,7-diazaspiro[4.5]decane-7-carboxylate]
Max Effect (mean number of 50 kHz USVs per 15 seconds) (rats; dose .001-1 mg/kg): *** (***:10.1-20)
